Read-outs that look alike come from different tables or passages of the source.
Tests used:
[1] = system: TA98; design: species or system Salmonella;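 on Count (# of wells): Revertant-positive wells among 48 replicate wells per concentration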
Procedure: (§1) Compounds were assessed for mutagenicity at the Eurofins Panlabs in 384-well plates using four Salmonella strains: TA98, to probe for frameshift mutation (with quercetin as control), TA100 and TA1535, to probe for base pair insertions/deletions (with streptozotocin as control), and TA1537, to probe for frameshift mutations (with aminacridine as control) as previously described.[78] […] A concurrent bacterial cytotoxicity assay was run at 0.6, 1.2, 2.5, 5, 10, 25, 50, and 100 μM to rule out false negatives. Bacterial cytotoxicity was expressed as percent of control growth (OD650). Compounds with growth of less than 60% control were flagged and considered bacterial cytotoxic. […] Significances of the positive counts between the treatment and control were determined using a one-tailed Fisher’s exact test.

[2] = system: TA100; design: species or system Salmonella;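 on Count (# of wells): Revertant-positive wells among 48 replicate wells per concentration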
Procedure: as §1

[3] = system: TA1537; design: species or system Salmonella;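 on Count (# of wells): Revertant-positive wells among 48 replicate wells per concentration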
Procedure: as §1

[4] = system: TA1535; design: species or system Salmonella
[5] = biological target: T1, BRAF(V600E) (Homo sapiens, UniProt P15056, V600E); experiment: KINOMEScan; type: binding; details: read-out: Percent Control
T1 construct: purchased Eurofins DiscoverX (KINOMEscan)
T1 sequence (P15056 whole entry V600E): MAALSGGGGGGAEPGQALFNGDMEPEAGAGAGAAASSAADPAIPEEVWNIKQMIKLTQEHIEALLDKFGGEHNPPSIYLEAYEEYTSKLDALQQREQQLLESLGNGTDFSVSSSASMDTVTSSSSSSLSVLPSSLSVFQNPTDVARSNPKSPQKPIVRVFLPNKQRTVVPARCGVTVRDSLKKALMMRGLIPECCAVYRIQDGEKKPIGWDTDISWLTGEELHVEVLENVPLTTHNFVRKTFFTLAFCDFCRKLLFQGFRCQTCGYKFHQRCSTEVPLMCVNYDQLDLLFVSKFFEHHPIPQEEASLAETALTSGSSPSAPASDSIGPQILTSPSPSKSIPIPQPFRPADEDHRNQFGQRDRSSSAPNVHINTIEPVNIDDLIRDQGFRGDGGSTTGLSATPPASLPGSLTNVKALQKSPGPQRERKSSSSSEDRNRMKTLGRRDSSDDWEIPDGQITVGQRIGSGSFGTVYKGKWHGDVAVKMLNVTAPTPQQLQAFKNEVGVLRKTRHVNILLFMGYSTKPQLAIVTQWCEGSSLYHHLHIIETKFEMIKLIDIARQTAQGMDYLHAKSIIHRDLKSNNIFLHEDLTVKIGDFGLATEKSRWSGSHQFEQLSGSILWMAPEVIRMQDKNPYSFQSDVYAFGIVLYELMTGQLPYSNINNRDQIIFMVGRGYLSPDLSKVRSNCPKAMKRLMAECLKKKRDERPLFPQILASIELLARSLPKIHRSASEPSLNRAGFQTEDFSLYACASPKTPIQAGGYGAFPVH
From the text: (§2) Percent control was mapped onto the kinome tree using TREEspot.

[6] = biological target: T2, ABL1(Q252H)-phosphorylated (Homo sapiens, UniProt P00519, Q252H); experiment: KINOMEScan; type: binding; details: read-out: Percent Control
T2 construct: purchased Eurofins DiscoverX
From the text: as §2

[7] = In vitro metabolite identification; type: in vitro ADME; details: human hepatocytes, 10 μM
[8] = Pharmacokinetic study; type: in vivo, BALB/c nude mice
Procedure: Animal experiments were performed at Pharmaron, Inc. and animal use was approved by Pharmaron’s Institutional Animal Care and Use Committee (IACUC) in Pharmaron (Pharmaron IACUC, Protocol #PK-M-07182022, #PK-R-06012022, and #ON-CELL-XEN-06012022) following the guidance of AAALAC. Six- to eight-week-old male Sprague-Dawley rats (approximately 200–300 g) obtained from Si Bei Fu Laboratory Animal Technology Co., six- to eight-week-old male CD1 mice (approximately 20–30 g) obtained from Si Bei Fu Laboratory Animal Technology Co., and six- to eight-week-old female BALB/c nude mice (approximately 20–30 g) obtained from Si Bei Fu Laboratory Animal Technology Co., were used in the pharmacokinetic studies. Six- to eight-week-old female BALB/c nude mice (approximately 18–22 g) obtained from Beijing Anikeeper Biotech Co., Ltd. were used in the intracranial PDX study. Animals were housed at 20–25 °C with humidity ranging from 40 to 70% relative humidity, were exposed to 12 h light and dark cycles, and were supplied with food and water ab libitum.
Approximately 0.03 mL of blood was collected from the dorsal metatarsal vein (in the case of CD1 mice), 0.03 mL of blood from the orbit vein (in the case of BALB/c nude mice), or 0.2 mL of blood from the jugular vein (in the case of Sprague-Dawley rats) at each time point. Blood at each sampling point was transferred into a plastic micro centrifuge tube containing K2-EDTA, and collection tubes with blood samples and anticoagulant were inverted several times for proper mixing of the tube contents and placed on ice prior to centrifugation for plasma. Blood samples were centrifuged at 4 °C, 4000g for 5 min to obtain plasma. Samples were stored in a freezer at −75 °C prior to analysis. Concentrations of test articles in the plasma samples were determined using LC-MS/MS and WinNonlin 8.3 (Phoenix) was used for pharmacokinetic calculations. The values obtained were plotted on GraphPad Prism software and are presented as mean ± SD.

[9] = biological target: T3, EGFRwt (Homo sapiens, UniProt P00533); experiment: KINOMEScan; type: binding; details: read-out: Percent Control
T3 construct: purchased Eurofins DiscoverX (contract assay)
T3 sequence (P00533 25-1210): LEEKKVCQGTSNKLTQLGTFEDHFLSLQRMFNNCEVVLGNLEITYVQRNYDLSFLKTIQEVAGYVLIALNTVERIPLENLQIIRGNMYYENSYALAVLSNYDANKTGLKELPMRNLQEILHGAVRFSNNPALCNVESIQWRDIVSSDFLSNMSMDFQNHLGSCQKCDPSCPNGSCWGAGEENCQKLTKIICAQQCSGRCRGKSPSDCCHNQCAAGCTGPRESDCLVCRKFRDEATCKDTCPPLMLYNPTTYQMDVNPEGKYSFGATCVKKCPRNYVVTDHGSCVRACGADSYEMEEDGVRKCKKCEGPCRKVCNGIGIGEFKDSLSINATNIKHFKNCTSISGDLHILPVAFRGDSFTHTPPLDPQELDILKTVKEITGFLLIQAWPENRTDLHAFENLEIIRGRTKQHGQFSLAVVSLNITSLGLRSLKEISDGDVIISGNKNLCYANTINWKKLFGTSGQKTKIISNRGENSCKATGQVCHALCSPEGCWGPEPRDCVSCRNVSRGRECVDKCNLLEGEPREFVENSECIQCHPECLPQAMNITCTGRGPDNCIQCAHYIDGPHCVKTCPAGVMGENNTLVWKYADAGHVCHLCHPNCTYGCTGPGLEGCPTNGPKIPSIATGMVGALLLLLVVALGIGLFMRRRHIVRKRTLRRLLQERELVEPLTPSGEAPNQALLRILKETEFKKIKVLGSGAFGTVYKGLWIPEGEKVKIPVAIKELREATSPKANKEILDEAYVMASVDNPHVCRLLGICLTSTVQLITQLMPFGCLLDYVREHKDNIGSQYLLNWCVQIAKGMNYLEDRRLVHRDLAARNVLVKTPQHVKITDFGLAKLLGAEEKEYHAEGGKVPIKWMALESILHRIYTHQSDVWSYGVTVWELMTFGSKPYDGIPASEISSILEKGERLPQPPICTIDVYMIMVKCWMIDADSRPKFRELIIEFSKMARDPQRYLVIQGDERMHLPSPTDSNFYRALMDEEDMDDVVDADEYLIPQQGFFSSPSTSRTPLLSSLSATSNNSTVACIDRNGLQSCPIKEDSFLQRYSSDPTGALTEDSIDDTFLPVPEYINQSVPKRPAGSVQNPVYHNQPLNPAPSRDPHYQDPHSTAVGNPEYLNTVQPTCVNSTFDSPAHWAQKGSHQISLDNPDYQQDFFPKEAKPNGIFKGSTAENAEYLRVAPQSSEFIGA
From the text: as §2

[10] = female, BALB/c nude, plasma, Mouse 3 mg/kg (IV)
[11] = female, BALB/c nude, plasma, Mouse 30 mg/kg (PO)

SMILES: COc1cc2ncnc(Nc3cccc(Cl)c3F)c2cc1OCCON1CCN(C)CC1 [Compound 9, N-(3-Chloro-2-fluorophenyl)-7-methoxy-6-(2-((4-methylpiperazin-1-yl)oxy)ethoxy)quinazolin-4-amine]
- Count (# of wells) ([1]; TA98+S9, 1.0E-04 M): 0
- Positive Significance (- to +++) ([1]; TA98+S9, 1.0E-04 M): -
- Count (# of wells) ([1]; TA98+S9, 1.0E-05 M): 2
- Positive Significance (- to +++) ([1]; TA98+S9, 1.0E-05 M): -
- Count (# of wells) ([1]; TA98+S9, 5.0E-05 M): 1
- Positive Significance (- to +++) ([1]; TA98+S9, 5.0E-05 M): -
- Count (# of wells) ([1]; TA98+S9, 5.0E-06 M): 0
- Positive Significance (- to +++) ([1]; TA98+S9, 5.0E-06 M): -
- Count (# of wells) ([1]; TA98-S9, 1.0E-04 M): 0
- Positive Significance (- to +++) ([1]; TA98-S9, 1.0E-04 M): -
- Count (# of wells) ([1]; TA98-S9, 1.0E-05 M): 0
- Positive Significance (- to +++) ([1]; TA98-S9, 1.0E-05 M): -
- Count (# of wells) ([1]; TA98-S9, 5.0E-05 M): 2
- Positive Significance (- to +++) ([1]; TA98-S9, 5.0E-05 M): -
- Count (# of wells) ([1]; TA98-S9, 5.0E-06 M): 0
- Positive Significance (- to +++) ([1]; TA98-S9, 5.0E-06 M): -
- Count (# of wells) ([2]; TA100+S9, 1.0E-04 M): 0
- Positive Significance (- to +++) ([2]; TA100+S9, 1.0E-04 M): -
- Count (# of wells) ([2]; TA100+S9, 1.0E-05 M): 3
- Positive Significance (- to +++) ([2]; TA100+S9, 1.0E-05 M): -
- Count (# of wells) ([2]; TA100+S9, 5.0E-05 M): 0
- Positive Significance (- to +++) ([2]; TA100+S9, 5.0E-05 M): -
- Count (# of wells) ([2]; TA100+S9, 5.0E-06 M): 3
- Positive Significance (- to +++) ([2]; TA100+S9, 5.0E-06 M): -
- Count (# of wells) ([2]; TA100-S9, 1.0E-04 M): 0
- Positive Significance (- to +++) ([2]; TA100-S9, 1.0E-04 M): -
- Count (# of wells) ([2]; TA100-S9, 1.0E-05 M): 4
- Positive Significance (- to +++) ([2]; TA100-S9, 1.0E-05 M): -
- Count (# of wells) ([2]; TA100-S9, 5.0E-05 M): 0
- Positive Significance (- to +++) ([2]; TA100-S9, 5.0E-05 M): -
- Count (# of wells) ([2]; TA100-S9, 5.0E-06 M): 1
- Positive Significance (- to +++) ([2]; TA100-S9, 5.0E-06 M): -
- Count (# of wells) ([3]; TA1537+S9, 1.0E-04 M): 1
- Positive Significance (- to +++) ([3]; TA1537+S9, 1.0E-04 M): -
- Count (# of wells) ([3]; TA1537+S9, 1.0E-05 M): 5
- Positive Significance (- to +++) ([3]; TA1537+S9, 1.0E-05 M): -
- Count (# of wells) ([3]; TA1537+S9, 5.0E-05 M): 4
- Positive Significance (- to +++) ([3]; TA1537+S9, 5.0E-05 M): -
- Count (# of wells) ([3]; TA1537+S9, 5.0E-06 M): 3
- Positive Significance (- to +++) ([3]; TA1537+S9, 5.0E-06 M): -
- Count (# of wells) ([3]; TA1537-S9, 1.0E-04 M): 0
- Positive Significance (- to +++) ([3]; TA1537-S9, 1.0E-04 M): -
- Count (# of wells) ([3]; TA1537-S9, 1.0E-05 M): 0
- Positive Significance (- to +++) ([3]; TA1537-S9, 1.0E-05 M): -
- Count (# of wells) ([3]; TA1537-S9, 5.0E-05 M): 0
- Positive Significance (- to +++) ([3]; TA1537-S9, 5.0E-05 M): -
- Count (# of wells) ([3]; TA1537-S9, 5.0E-06 M): 1
- Positive Significance (- to +++) ([3]; TA1537-S9, 5.0E-06 M): -
- Count (# of wells) ([4]; TA1535+S9, 1.0E-04 M): 0
- Positive Significance (- to +++) ([4]; TA1535+S9, 1.0E-04 M): -
- Count (# of wells) ([4]; TA1535+S9, 1.0E-05 M): 3
- Positive Significance (- to +++) ([4]; TA1535+S9, 1.0E-05 M): -
- Count (# of wells) ([4]; TA1535+S9, 5.0E-05 M): 0
- Positive Significance (- to +++) ([4]; TA1535+S9, 5.0E-05 M): -
- Count (# of wells) ([4]; TA1535+S9, 5.0E-06 M): 1
- Positive Significance (- to +++) ([4]; TA1535+S9, 5.0E-06 M): -
- Count (# of wells) ([4]; TA1535-S9, 1.0E-04 M): 0
- Positive Significance (- to +++) ([4]; TA1535-S9, 1.0E-04 M): -
- Count (# of wells) ([4]; TA1535-S9, 1.0E-05 M): 0
- Positive Significance (- to +++) ([4]; TA1535-S9, 1.0E-05 M): -
- Count (# of wells) ([4]; TA1535-S9, 5.0E-05 M): 0
- Positive Significance (- to +++) ([4]; TA1535-S9, 5.0E-05 M): -
- Count (# of wells) ([4]; TA1535-S9, 5.0E-06 M): 0
- Positive Significance (- to +++) ([4]; TA1535-S9, 5.0E-06 M): -
- remaining binding at 1 µM [5]: 82%
- remaining binding at 1 µM [6]: 8.8%
- share of parent/metabolite after incubation of 9 [7]: 14.20%
- plasma level at the 24 h time point ([8]; 30 mg/kg PO, BALB/c nude mice): no compound was detected
- clearance [8, 10]: 58.6 ± 8.7 mL/min/kg
- half-life at 24 h [8, 10]: 100 ± 7.2 min
- Vd at 24 h ([8]; female, BALB/c nude, plasma, Mouse 3 mg/kg (IV), read-out: Vss): 4.68 ± 0.54 L/kg
- Cmax at 24 h [8, 11]: 2180 ± 66 nM
- Tmax at 24 h [8, 11]: 25.2 ± 8.4 min
- bioavailability at 24 h [8, 11]: 61%
- half-life at 24 h [8, 11]: 110 ± 37.2 min
- remaining binding at 1 µM [9]: 0.3%
